Reference: PubChem BioAssay (NCI)
Converted amounts (≈) assume the structure as drawn.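 Values below derive from 48-hour exposures of cells grown in 96-well plates, with endpoints linearly interpolated between the two concentrations bracketing the appropriate inhibition level. Here, GI50 denotes the concentration required for 50% inhibition of growth. TGI denotes the concentration required for complete inhibition of growth.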

What was measured:
Assay in all cases: inhibition of tumour cell growth, NCI panel, 48 h
786-0 renal = test system: 786-0 renal
A498 renal = test system: A498 renal
A549 NSCLC = test system: A549 NSCLC
ACHN renal = test system: ACHN renal
BT-549 breast = test system: BT-549 breast
CAKI-1 renal = test system: CAKI-1 renal
CCRF-CEM leukemia = test system: CCRF-CEM leukemia
COLO 205 colon = test system: COLO 205 colon
DU-145 prostate = test system: DU-145 prostate
EKVX NSCLC = test system: EKVX NSCLC
HCC-2998 colon = test system: HCC-2998 colon
HCT-116 colon = test system: HCT-116 colon
HCT-15 colon = test system: HCT-15 colon
HL-60(TB) leukemia = test system: HL-60(TB) leukemia
HOP-62 NSCLC = test system: HOP-62 NSCLC
HOP-92 NSCLC = test system: HOP-92 NSCLC
HS 578T breast = test system: HS 578T breast
HT29 colon = test system: HT29 colon
IGROV1 ovarian = test system: IGROV1 ovarian
K-562 leukemia = test system: K-562 leukemia
KM12 colon = test system: KM12 colon
LOX IMVI melanoma = test system: LOX IMVI melanoma
M14 melanoma = test system: M14 melanoma
MALME-3M melanoma = test system: MALME-3M melanoma
MCF7 breast = test system: MCF7 breast
MDA-MB-231 breast = test system: MDA-MB-231 breast
MDA-MB-435 = test system: MDA-MB-435
MDA-N = test system: MDA-N
MOLT-4 leukemia = test system: MOLT-4 leukemia
NCI-H226 lung = test system: NCI-H226 lung
NCI-H23 lung = test system: NCI-H23 lung
NCI-H460 lung = test system: NCI-H460 lung
NCI-H522 lung = test system: NCI-H522 lung
NCI/ADR-RES ovarian = test system: NCI/ADR-RES ovarian
OVCAR-3 ovarian = test system: OVCAR-3 ovarian
OVCAR-4 ovarian = test system: OVCAR-4 ovarian
OVCAR-5 ovarian = test system: OVCAR-5 ovarian
OVCAR-8 ovarian = test system: OVCAR-8 ovarian
PC-3 prostate = test system: PC-3 prostate
RPMI-8226 leukemia = test system: RPMI-8226 leukemia
RXF 393 renal = test system: RXF 393 renal
SF-268 CNS = test system: SF-268 CNS
SF-295 CNS = test system: SF-295 CNS
SF-539 CNS = test system: SF-539 CNS
SK-MEL-2 melanoma = test system: SK-MEL-2 melanoma
SK-MEL-28 melanoma = test system: SK-MEL-28 melanoma
SK-MEL-5 melanoma = test system: SK-MEL-5 melanoma
SK-OV-3 ovarian = test system: SK-OV-3 ovarian
SN12C renal = test system: SN12C renal
SNB-19 CNS = test system: SNB-19 CNS
SNB-75 CNS = test system: SNB-75 CNS
SW-620 colon = test system: SW-620 colon
T-47D breast = test system: T-47D breast
TK-10 renal = test system: TK-10 renal
U251 CNS = test system: U251 CNS
UACC-257 melanoma = test system: UACC-257 melanoma
UACC-62 melanoma = test system: UACC-62 melanoma
UO-31 renal = test system: UO-31 renal

SMILES: C=CCN(c1cc(OC)c2[nH]c(C(=O)OCC)c(C)c2c1[N+](=O)[O-])S(C)(=O)=O
- TGI (786-0 renal): > 100 µM
- TGI (A498 renal): 65.6 µM
- TGI (A549 NSCLC): > 100 µM
- TGI (ACHN renal): 69.5 µM
- TGI (BT-549 breast): 60.5 µM
- TGI (CAKI-1 renal): > 100 µM
- TGI (CCRF-CEM leukemia): > 100 µM
- TGI (COLO 205 colon): 29.1 µM
- TGI (DU-145 prostate): > 100 µM
- TGI (EKVX NSCLC): 46.2 µM
- TGI (HCC-2998 colon): > 100 µM
- TGI (HCT-116 colon): 58.3 µM
- TGI (HCT-15 colon): > 100 µM
- TGI (HL-60(TB) leukemia): 46.5 µM
- TGI (HOP-62 NSCLC): > 100 µM
- TGI (HOP-92 NSCLC): 72.4 µM
- TGI (HS 578T breast): 58.7 µM
- TGI (HT29 colon): 35.5 µM
- TGI (IGROV1 ovarian): > 100 µM
- TGI (K-562 leukemia): 31.4 µM
- TGI (KM12 colon): 66.2 µM
- TGI (LOX IMVI melanoma): 39.4 µM
- TGI (M14 melanoma): > 100 µM
- TGI (MALME-3M melanoma): 60.8 µM
- TGI (MCF7 breast): 52.2 µM
- TGI (MDA-MB-231 breast): 33.7 µM
- TGI (MDA-MB-435): 64.7 µM
- TGI (MDA-N): 52.7 µM
- TGI (MOLT-4 leukemia): 28.9 µM
- TGI (NCI-H226 lung): 25.3 µM
- TGI (NCI-H23 lung): > 100 µM
- TGI (NCI-H460 lung): > 100 µM
- TGI (NCI-H522 lung): 43.9 µM
- TGI (NCI/ADR-RES ovarian): 72.6 µM
- TGI (OVCAR-3 ovarian): 80.2 µM
- TGI (OVCAR-4 ovarian): > 100 µM
- TGI (OVCAR-5 ovarian): 99.1 µM
- TGI (OVCAR-8 ovarian): > 100 µM
- TGI (PC-3 prostate): 38.1 µM
- TGI (RPMI-8226 leukemia): 32.8 µM
- TGI (RXF 393 renal): 45.9 µM
- TGI (SF-268 CNS): > 100 µM
- TGI (SF-295 CNS): > 100 µM
- TGI (SF-539 CNS): > 100 µM
- TGI (SK-MEL-2 melanoma): 51.3 µM
- TGI (SK-MEL-28 melanoma): > 100 µM
- TGI (SK-MEL-5 melanoma): 44.8 µM
- TGI (SK-OV-3 ovarian): > 100 µM
- TGI (SN12C renal): 56.1 µM
- TGI (SNB-19 CNS): > 100 µM
- TGI (SNB-75 CNS): 60 µM
- TGI (SW-620 colon): > 100 µM
- TGI (T-47D breast): 48.6 µM
- TGI (TK-10 renal): > 100 µM
- TGI (U251 CNS): 31.6 µM
- TGI (UACC-257 melanoma): > 100 µM
- TGI (UACC-62 melanoma): 61.7 µM
- TGI (UO-31 renal): 74.8 µM

SMILES: CC(=O)OCCOCN1C(=O)NC(=O)/C(=C/c2cccc(OCc3ccccc3)c2)C1=O
- GI50 (786-0 renal): 62.1 µg/mL (≈ 142 µM)
- GI50 (CCRF-CEM leukemia): 25 µg/mL (≈ 56.9 µM)
- TGI (CCRF-CEM leukemia): 58.1 µg/mL
- GI50 (DU-145 prostate): 66 µg/mL (≈ 151 µM)
- GI50 (HCT-116 colon): 47.8 µg/mL (≈ 109 µM)
- GI50 (HL-60(TB) leukemia): 15 µg/mL (≈ 34.2 µM)
- TGI (HL-60(TB) leukemia): 48.6 µg/mL
- GI50 (HT29 colon): 48 µg/mL (≈ 110 µM)
- GI50 (IGROV1 ovarian): 33.6 µg/mL (≈ 76.7 µM)
- GI50 (K-562 leukemia): 34.9 µg/mL (≈ 79.7 µM)
- GI50 (LOX IMVI melanoma): 35.7 µg/mL (≈ 81.4 µM)
- GI50 (M14 melanoma): 55.4 µg/mL (≈ 126 µM)
- GI50 (MCF7 breast): 42.5 µg/mL (≈ 97 µM)
- GI50 (MDA-MB-231 breast): 94.7 µg/mL (≈ 216 µM)
- GI50 (MDA-MB-435): 63.6 µg/mL (≈ 145 µM)
- GI50 (MDA-N): 29.4 µg/mL (≈ 67.1 µM)
- GI50 (MOLT-4 leukemia): 35.3 µg/mL (≈ 80.5 µM)
- GI50 (NCI/ADR-RES ovarian): 19.9 µg/mL (≈ 45.4 µM)
- TGI (NCI/ADR-RES ovarian): 45.4 µg/mL
- GI50 (OVCAR-3 ovarian): 50.3 µg/mL (≈ 115 µM)
- GI50 (OVCAR-8 ovarian): 37.9 µg/mL (≈ 86.6 µM)
- GI50 (RPMI-8226 leukemia): 29.1 µg/mL (≈ 66.4 µM)
- TGI (RPMI-8226 leukemia): 73.2 µg/mL
- GI50 (SF-539 CNS): 23.4 µg/mL (≈ 53.3 µM)
- TGI (SF-539 CNS): 79.1 µg/mL
- GI50 (SK-MEL-5 melanoma): 33.5 µg/mL (≈ 76.3 µM)
- GI50 (SN12C renal): 66 µg/mL (≈ 151 µM)
- GI50 (SW-620 colon): 68.1 µg/mL (≈ 155 µM)
- GI50 (T-47D breast): 73.9 µg/mL (≈ 169 µM)
- GI50 (U251 CNS): 55.7 µg/mL (≈ 127 µM)
- GI50 (UACC-62 melanoma): 48.5 µg/mL (≈ 111 µM)
- GI50 (UO-31 renal): 65.9 µg/mL (≈ 150 µM)
